Bounds are passed on as bounds.

For one test, the system named is monocistronic NK5.1 HCV replicon in Huh7 cells. As to the kind of experiment: HCV replicon assay, monocistronic replicon cell line. In kind it is cell-based, hepatitis C virus. The conditions noted are these: Hepatitis C virus, Huh-7, 72 h; Table 1; monocistronic replicon in Huh7 cells, 3 days incubation, HCV RNA/GAPDH RNA by TaqMan RT-PCR; read-out: Mono EC50 Median. Put shortly:
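EC50 derives from the HCV RNA/GAPDH RNA ratio by one-step TaqMan RT-PCR, relative to DMSO-only wells. Compounds (six half-log concentrations, 0.6% DMSO) were incubated 3 days at 37 °C with NK5.1 monocistronic replicon Huh7 cells plated a day earlier.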
On the technique in general: Replicon systems follow genome replication, usually without infectious particles.
With `Cc1cc(O)c(-c2cc(C)n(-c3nc4ccccc4s3)n2)cc1C` [Compound 23, 2-(l-Benzothiazol-2-yl-5-methyl-1H-pyrazol-3-yl)-4,5-dimethyl-phenol], the 50% effective concentration (EC50) is greater than 19 µM.

As to `COc1ccc(OCc2ccccc2)c(-c2ccn(-c3ccccn3)n2)c1` [Compound 82, 2-[3-(2-Benzvloxy-5-methoxy-phenvl)-pvrazol-1-yl]-pyridine], the concentration for a half-maximal effect (EC50) was determined as 4.3 µM.

On to `Oc1ccc(Br)cc1-c1ccn(-c2ncccc2C(F)(F)F)n1` [Compound 100, 4-Bromo-2-[1-(3-trifluoromethyl-pyridin-2-yl)-1H-pyrazol-3-yl]-phenol], for which the EC50 was 2.3 µM.

Consider `Oc1ccccc1-c1cc(-c2ccccn2)on1` [Compound 123, 2-(5-Pyridin-2-yl-isoxazol-3-yl)-phenol], for which the EC50 was greater than 32 µM.

On to `COc1ccc(-c2ccn(-c3ncccc3[N+](=O)[O-])n2)c(F)c1` [Compound 45, 2-[3-(2-Fluoro-4-methoxy-phenyl)-pyrazol-1-yl]-3-nitro-pyridine], for which the 50% effective concentration (EC50) amounted to 5.8 µM.

As for `Cc1cc(-c2c(O)ccc3ccccc23)nn1-c1ccccn1` [Compound 28, 1-(5-Methyl-1-pyridin-2-yl-1H-pyrazol-3-yl)-naphthalen-2-ol], the EC50 is greater than 19 µM.

As for `COc1ccccc1-c1ccnn1-c1ccccc1[N+](=O)[O-]` [Compound 32, 5-(2-Methoxy-phenyl)-1-(2-nitro-phenyl)-1H-pyrazole], the EC50 was found to be 3.6 µM.

On to `COc1ccc(OCc2ccccc2)c(-c2ccnn2Cc2ccccn2)c1` [Compound 116, 2-[5-(2-Benzyloxy-5-methoxy-phenyl)-pyrazol-1-ylmethyl]-pyridine], for which the EC50 was 13 µM.

Regarding `O=[N+]([O-])c1ccc(O)c(-c2nc(-c3ccccn3)no2)c1` [Compound 146, 4-Nitro-2-(3-pyridin-2-yl-[1,2,4]oxadiazol-5-yl)-phenol], the EC50 was greater than 32 µM.

As to `Cc1cccnc1-c1noc(-c2cc([N+](=O)[O-])ccc2Cl)n1` [Compound 191, 2-[5-(2-Chloro-5-nitro-phenyl)-[1,2,4]oxadiazol-3-yl]-3-methyl-pyridine], the 50% effective concentration (EC50) turned out to be 2 µM.

As for `Cc1cc(-c2c(O)ccc3ccccc23)nn1-c1ncccc1[N+](=O)[O-]` [Compound 25, 1-[5-Methyl-1-(3-nitro-pyridin-2-yl)-1H-pyrazol-3-yl]-naphthalen-2-ol], the EC50 is greater than 19 µM.

Consider `O=[N+]([O-])c1cccnc1-c1noc(-c2cc(O)ccc2O)n1` [Compound 171, 2-[3-(3-Nitro-pyridin-2-yl)-[1,2,4]oxadiazol-5-yl]-benzene-1,4-diol], for which the 50% effective concentration (EC50) is 5.4 µM.

As to `O=[N+]([O-])c1ccc(-c2nc(-c3nccc4ccccc34)no2)c(Cl)c1` [Compound 212], the concentration for a half-maximal effect (EC50) was greater than 32 µM.

With `Cc1cccnc1-c1noc(-c2c(O)ccc3ccccc23)n1` [Compound 189, 1-[3-(3-Methyl-pyridin-2-yl)-[1,2,4]oxadiazol-5-yl]-naphthalen-2-ol], the EC50 was found to be 1.2 µM.

Regarding `CCCNC(=O)c1cc(-c2ccc(OC)cc2)nn1-c1ccccn1` [Compound 62], the EC50 was greater than 32 µM.

Consider `COc1cccc(-c2nc(-c3ccccn3)no2)c1` [Compound 139, 2-[5-(3-Methoxy-phenyl)-[1,2,4]oxadiazol-3-yl]-pyridine], for which the concentration giving a half-maximal response (EC50) was determined as 18 µM.

For `O=C(O)c1cc(-c2ccc3ccccc3c2)n(-c2ccccn2)n1` [Compound 74, 5-Naphthalen-2-yl-1-pyridin-2-yl-1H-pyrazole-3-carboxylic acid], the EC50 is greater than 32 µM.

With `COc1ccc(O)c(-c2ccn(Cc3ccc4ccccc4n3)n2)c1` [Compound 111, 4-Methoxy-2-(1-quinolin-2-ylmethyl-1H-pyrazol-3-yl)-phenol], the EC50 was found to be 14 µM.

Consider `COc1ccc(-c2nc(-c3ccc(NC(=O)OC(C)(C)C)cn3)no2)c(O)c1` [Compound 238, {6-[5-(2-Hydroxy-4-methoxy-phenyl)-[1,2,4]oxadiazol-3-yl]-pyridin-3-yl}-carbamic acid tert-butyl ester], for which the EC50 stood at 1.9 µM.

For the compound `Oc1ccc2ccccc2c1-c1nc(-c2nccc3ccccc23)no1` [Compound 210, 1-(3-Isoquinolin-1-yl-[1,2,4]oxadiazol-5-yl)-naphthalen-2-ol], the EC50 amounted to 2.4 µM.

In the case of `Cc1ccc(O)c(-c2nc(-c3ccc(C(F)(F)F)cn3)no2)c1` [Compound 225, 4-Methyl-2-[3-(5-trifluoromethyl-pyridin-2-yl)-[1,2,4]oxadiazol-5-yl]-phenol], the EC50 turned out to be 7.5 µM.

Staying with this test, now noted: Hepatitis C virus, Huh-7, 72 h; table T3 (compounds 471-640); monocistronic replicon in Huh7 cells, 3 days incubation, HCV RNA/GAPDH RNA by TaqMan RT-PCR; read-out: Mono EC50 Median.
`Cc1cccnc1-c1nc(-c2cc([N+](=O)[O-])ccc2O)n(C)n1` [Compound 607, 4-Nitro-2-[2-methyl-5-(3-methyl-pyridin-2-yl)-2H-[1,2,4]triazol-3-yl]-phenol]: the EC50 was found to be 2.8 µM.

With `COc1ccc(O)c(-c2nc(-c3ncccn3)n[nH]2)c1` [Compound 562, 4-Methoxy-2-(5-pyrimidin-2-yl-2H-[1,2,4]triazol-3-yl)-phenol], the EC50 is greater than 32 µM.

In the case of `Oc1ccc(F)cc1-c1nc(-c2ncccc2Br)n[nH]1` [Compound 486, 2-[5-(3-Bromo-pyridin-2-yl)-2H-[1,2,4]triazol-3-yl]-4-Fluoro-phenol], the EC50 is 7.4 µM.

Regarding `FC(F)(F)c1ccncc1-c1n[nH]c(-c2cccc(Br)c2)n1` [Compound 474, 3-[5-(3-Bromo-phenyl)-1H-[1,2,4]triazol-3-yl]-4-trifluoromethyl-pyridine], the EC50 was greater than 32 µM.

On to `Cc1cccnc1-c1n[nH]c(-c2cc(Cl)cc(Cl)c2O)n1` [Compound 622, 4,6-Dichloro-2-[5-(3-methyl-pyridin-2-yl)-2H-[1,2,4]triazol-3-yl]-phenol], for which the EC50 came out at 1.4 µM.

The same test, now with this note: Hepatitis C virus, Huh-7; monocistronic NK5.1 HCV replicon in Huh7 cells; median value; read-out: Mono EC50 Median.
For the compound `CCOc1cccc(-c2nc(-c3cccc(C)n3)n[nH]2)c1O` [Compound 396, 6-Ethoxy-2-(5-(6-methyl-pyridin-2-yl)-2H-[1,2,4]triazol-3-yl)-phenol], the EC50 was greater than 19 µM.

`Cc1cccnc1-c1n[nH]c(-c2cc(O)ccc2O)n1` [Compound 457, 4-Hydroxy-2-[5-(3-methyl-pyridin-2-yl)-2H-[1,2,4]triazol-3-yl]-phenol]: the EC50 worked out at 4.1 µM.

Consider `Oc1ccc(Cl)cc1-c1nc(-c2ccccn2)n[nH]1` [Compound 354, 4-Chloro-2-(5-pyridin-2-yl-2H-[1,2,4]triazol-3-yl)-phenol], for which the EC50 is 4.8 µM.

Turning to `Oc1ccccc1-c1nnc(-c2c(Cl)cccc2Cl)o1` [Compound 322, 2-[5-(2,6-Dichloro-phenyl)-[1,3,4]oxadiazol-2-yl]-phenol], the EC50 turned out to be 12 µM.

`Cc1cccnc1-c1noc(-c2cc(NC(=O)c3ccccc3)ccc2O)n1` [Compound 290, N-{4-Hydroxy-3-[3-(3-methyl-pyridin-2-yl)-[1,2,4]oxadiazol-5-yl]-phenyl}-benzamide]: the EC50 stood at 2.8 µM.

Turning to `Cc1cccnc1-c1n[nH]c(-c2ccc(-c3ccccc3)c(F)c2)n1` [Compound 448, 2-[5-(2-Fluoro-biphenyl-4-yl)-1H-[1,2,4]triazol-3-yl]-3-methyl-pyridine], the EC50 is 28 µM.

Consider `COc1ccc([N+](=O)[O-])cc1-c1nc(-c2cccc(C)n2)n[nH]1` [Compound 407, 2-[5-(2-Methoxy-5-nitro-phenyl)-1H-[1,2,4]triazol-3-yl]-6-methyl-pyridine], for which the EC50 was greater than 19 µM.

Consider `Fc1cc(-c2nc(-c3cnccc3C(F)(F)F)n[nH]2)ccc1-c1ccccc1` [Compound 418, 3-[5-(2-Fluoro-biphenyl-4-yl)-1H-[1,2,4]triazol-3-yl]-4-trifluoromethyl-pyridine], for which the 50% effective concentration (EC50) was 17 µM.

In the case of `COc1ccccc1-c1nnc(-c2cccs2)o1` [Compound 331, 2-(2-Methoxy-phenyl)-5-thiophen-2-yl-[1,3,4]oxadiazole], the EC50 is greater than 32 µM.

On to `O=[N+]([O-])c1ccc(-c2nc(-c3nccc4ccccc34)no2)c(Cl)c1` [Compound 212], for which the EC50 is greater than 32 µM.

Turning to `Fc1ccccc1-c1nnc(-c2ccco2)o1` [Compound 336, 2-(2-Fluoro-phenyl)-5-furan-2-yl-[1,3,4]oxadiazole], the EC50 is greater than 32 µM.

Take `CC(C)(C)c1ccc(O)c(-c2nc(-c3ccccn3)n[nH]2)c1` [Compound 351, 4-tert-Butyl-2-(5-pyridin-2-yl-2H-[1,2,4]triazol-3-yl)-phenol]: the EC50 stood at 8.6 µM.

Regarding `O=[N+]([O-])c1cccc(-c2nc(-c3ccccn3)n[nH]2)c1` [Compound 364, 2-[5-(3-Nitro-phenyl)-1H-[1,2,4]triazol-3-yl]-pyridine], the EC50 was greater than 32 µM.

`COc1cccc(-c2nc(-c3ccccn3)n[nH]2)c1` [Compound 387, 2-[5-(3-Methoxy-phenyl)-1H-[1,2,4]triazol-3-yl]-pyridine]: the EC50 is greater than 19 µM.

As to `Oc1ccc2ccccc2c1-c1nnc(-c2c(Cl)cccc2Cl)o1` [Compound 310, 1-[5-(2,6-Dichloro-phenyl)-[1,3,4]oxadiazol-2-yl]-naphthalen-2-ol], the concentration giving a half-maximal response (EC50) was 4.4 µM.

`Cc1cccnc1-c1noc(-c2cc(C3OCC(C)(C)CO3)ccc2O)n1` [Compound 297, 4-(5,5-Dimethyl-[1,3]dioxan-2-yl)-2-[3-(3-methyl-pyridin-2-yl)-[1,2,4]oxadiazol-5-yl]-phenol]: the concentration for a half-maximal effect (EC50) is 0.43 µM.

For the compound `Fc1ccccc1-c1nnc(-c2ccccc2C(F)(F)F)o1` [Compound 334, 2-(2-Fluoro-phenyl)-5-(2-trifluoromethyl-phenyl)-[1,3,4]oxadiazole], the 50% effective concentration (EC50) was greater than 32 µM.

For the compound `COc1ccc(-c2nc(-c3ccc(NC(=O)OC(C)(C)C)cn3)no2)c(O)c1` [Compound 238, {6-[5-(2-Hydroxy-4-methoxy-phenyl)-[1,2,4]oxadiazol-3-yl]-pyridin-3-yl}-carbamic acid tert-butyl ester], the EC50 was determined as 1.9 µM.

Regarding `Cc1ccc(O)c(-c2nc(-c3ccc(C(F)(F)F)cn3)no2)c1` [Compound 225, 4-Methyl-2-[3-(5-trifluoromethyl-pyridin-2-yl)-[1,2,4]oxadiazol-5-yl]-phenol], the EC50 was 7.5 µM.

Regarding `Brc1ccccc1-c1nc(-c2ccccn2)n[nH]1` [Compound 431, 2-[5-(2-Bromo-phenyl)-1H-[1,2,4]triazol-3-yl]-pyridine], the EC50 is greater than 19 µM.

On to `Cc1cccnc1-c1noc(-c2ccc(OCc3ccccc3)cc2O)n1` [Compound 274, 5-Benzyloxy-2-[3-(3-methyl-pyridin-2-yl)-[1,2,4]oxadiazol-5-yl]-phenol], for which the EC50 was found to be 1.8 µM.

One may read the EC50 as the midpoint of the concentration-response curve.

Values taken from patent publication US20050075375A1 (priority 2003, published 2005).
